Key:
[1] = target: Cyclin-dependent kinase 2/cyclin E1 (Homo sapiens, UniProt P24941); assay: Inhibition of CDK2/cyclinE (unknown origin); type: protein-complex assay
[2] = species: Homo sapiens; assay: Selectivity index, ratio of IC50 for inhibition of CDK4/cyclinD (unknown origin) to IC50 for inhibition of CDK9/cyclinT1 (unknown origin)
[3] = target: Cyclin-dependent kinase 4/cyclin D1 (Homo sapiens, UniProt P11802); assay: Inhibition of CDK4/cyclinD (unknown origin); type: protein-complex assay
Chain of Cyclin-dependent kinase 4/cyclin D1 (P11802 whole entry): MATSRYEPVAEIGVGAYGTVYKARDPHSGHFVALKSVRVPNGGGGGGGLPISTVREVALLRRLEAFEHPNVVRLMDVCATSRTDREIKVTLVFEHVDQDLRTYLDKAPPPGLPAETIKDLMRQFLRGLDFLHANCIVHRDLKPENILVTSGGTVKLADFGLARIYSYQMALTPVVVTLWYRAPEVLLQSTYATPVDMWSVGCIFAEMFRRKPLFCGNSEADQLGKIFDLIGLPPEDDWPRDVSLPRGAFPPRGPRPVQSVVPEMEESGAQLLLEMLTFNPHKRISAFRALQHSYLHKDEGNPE
Chain of Cyclin-dependent kinase 4/cyclin D1 (P24385 whole entry, further chain): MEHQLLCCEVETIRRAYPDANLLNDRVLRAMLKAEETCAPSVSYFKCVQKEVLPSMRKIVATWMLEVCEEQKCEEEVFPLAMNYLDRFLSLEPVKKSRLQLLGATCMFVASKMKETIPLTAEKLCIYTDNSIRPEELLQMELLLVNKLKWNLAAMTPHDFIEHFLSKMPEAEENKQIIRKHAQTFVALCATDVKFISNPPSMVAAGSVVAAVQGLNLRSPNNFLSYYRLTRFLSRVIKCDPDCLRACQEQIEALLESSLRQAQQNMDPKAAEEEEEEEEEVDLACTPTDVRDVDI

[4] = target: T1, Cyclin-dependent kinase 5/CDK5 activator 1 (Homo sapiens, UniProt Q00535); assay: Inhibition of CDK5/p35 (unknown origin); type: protein-complex assay
T1 sequence (Q00535 whole entry): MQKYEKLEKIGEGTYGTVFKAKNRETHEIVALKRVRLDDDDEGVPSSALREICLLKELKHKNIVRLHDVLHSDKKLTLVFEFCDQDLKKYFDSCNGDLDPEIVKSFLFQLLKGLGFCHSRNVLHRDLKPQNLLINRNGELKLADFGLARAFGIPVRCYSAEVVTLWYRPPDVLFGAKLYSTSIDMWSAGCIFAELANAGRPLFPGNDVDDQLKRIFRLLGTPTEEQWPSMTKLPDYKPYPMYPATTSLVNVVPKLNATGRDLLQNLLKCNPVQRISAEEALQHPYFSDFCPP
T1 sequence (Q15078 whole entry, further chain): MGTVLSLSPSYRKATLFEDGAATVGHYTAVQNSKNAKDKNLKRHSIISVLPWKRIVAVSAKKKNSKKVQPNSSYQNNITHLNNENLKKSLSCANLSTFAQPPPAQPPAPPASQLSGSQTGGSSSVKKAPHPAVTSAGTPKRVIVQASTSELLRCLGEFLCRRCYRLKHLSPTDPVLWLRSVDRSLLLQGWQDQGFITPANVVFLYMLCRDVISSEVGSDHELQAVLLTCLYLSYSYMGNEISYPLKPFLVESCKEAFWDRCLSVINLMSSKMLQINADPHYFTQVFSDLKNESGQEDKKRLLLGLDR

[5] = Inhibition of CDK8/cyclinD3 (unknown origin); set-up: species or system Homo sapiens
[6] = target: CDK7/Cyclin H/MNAT1 (Homo sapiens, UniProt P50613); assay: Inhibition of CDK7/cyclinH/MAT1 (unknown origin); type: protein-complex assay
Chain of CDK7/Cyclin H/MNAT1 (P51946 whole entry): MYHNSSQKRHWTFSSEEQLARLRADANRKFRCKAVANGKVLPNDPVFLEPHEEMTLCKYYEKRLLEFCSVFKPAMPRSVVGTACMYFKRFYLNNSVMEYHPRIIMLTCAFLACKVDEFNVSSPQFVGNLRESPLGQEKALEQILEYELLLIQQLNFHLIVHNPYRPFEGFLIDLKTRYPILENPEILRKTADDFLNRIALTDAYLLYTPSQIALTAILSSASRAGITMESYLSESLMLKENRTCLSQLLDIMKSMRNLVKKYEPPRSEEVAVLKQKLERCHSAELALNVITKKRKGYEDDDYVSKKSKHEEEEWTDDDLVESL
Chain of CDK7/Cyclin H/MNAT1 (P50613 whole entry): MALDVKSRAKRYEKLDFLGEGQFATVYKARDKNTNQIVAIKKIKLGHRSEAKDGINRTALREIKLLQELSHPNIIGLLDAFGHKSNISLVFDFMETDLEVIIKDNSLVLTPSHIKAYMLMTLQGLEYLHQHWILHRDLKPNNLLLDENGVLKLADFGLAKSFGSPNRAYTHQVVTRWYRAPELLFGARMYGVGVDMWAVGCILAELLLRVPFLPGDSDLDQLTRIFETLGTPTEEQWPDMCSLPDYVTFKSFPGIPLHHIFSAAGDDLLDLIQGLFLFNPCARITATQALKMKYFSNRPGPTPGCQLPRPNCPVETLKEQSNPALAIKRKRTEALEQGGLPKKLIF
Chain of CDK7/Cyclin H/MNAT1 (P51948 whole entry, further chain): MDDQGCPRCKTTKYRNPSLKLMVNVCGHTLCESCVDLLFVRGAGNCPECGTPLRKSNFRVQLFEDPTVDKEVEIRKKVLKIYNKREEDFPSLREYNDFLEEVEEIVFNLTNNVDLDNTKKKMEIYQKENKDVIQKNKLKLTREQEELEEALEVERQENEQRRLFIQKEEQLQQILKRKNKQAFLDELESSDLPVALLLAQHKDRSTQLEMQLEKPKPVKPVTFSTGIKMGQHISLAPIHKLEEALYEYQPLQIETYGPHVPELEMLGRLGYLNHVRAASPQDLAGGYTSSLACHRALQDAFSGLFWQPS

[7] = target: CDK3/Cyclin E (Homo sapiens, UniProt Q00526); assay: Inhibition of CDK3/cyclinE (unknown origin); type: protein-complex assay
Chain of CDK3/Cyclin E (P24864 whole entry): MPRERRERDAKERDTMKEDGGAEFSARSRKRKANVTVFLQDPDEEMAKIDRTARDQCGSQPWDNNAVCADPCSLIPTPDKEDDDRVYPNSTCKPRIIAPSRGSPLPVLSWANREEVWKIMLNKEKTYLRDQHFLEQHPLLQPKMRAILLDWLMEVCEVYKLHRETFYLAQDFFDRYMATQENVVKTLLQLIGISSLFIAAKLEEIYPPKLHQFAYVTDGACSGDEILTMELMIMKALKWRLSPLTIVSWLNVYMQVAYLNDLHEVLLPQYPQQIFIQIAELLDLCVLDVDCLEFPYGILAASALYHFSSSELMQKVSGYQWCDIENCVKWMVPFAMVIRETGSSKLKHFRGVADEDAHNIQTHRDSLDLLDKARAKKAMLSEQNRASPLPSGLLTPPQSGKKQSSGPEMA
Chain of CDK3/Cyclin E (Q00526 whole entry): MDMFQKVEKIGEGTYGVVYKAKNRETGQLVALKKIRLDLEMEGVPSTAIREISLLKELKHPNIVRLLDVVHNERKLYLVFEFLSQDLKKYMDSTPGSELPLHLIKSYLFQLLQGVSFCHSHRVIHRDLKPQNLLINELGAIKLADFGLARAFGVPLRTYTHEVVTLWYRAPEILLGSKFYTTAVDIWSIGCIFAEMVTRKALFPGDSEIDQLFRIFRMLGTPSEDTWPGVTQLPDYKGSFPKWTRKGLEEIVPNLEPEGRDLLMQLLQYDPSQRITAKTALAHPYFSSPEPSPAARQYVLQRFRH

[8] = target: CDK9/cyclin T1 (Homo sapiens, UniProt P50750); assay: Inhibition of CDK9/cyclinT1 (unknown origin); type: protein-complex assay
Chain of CDK9/cyclin T1 (O60563 whole entry): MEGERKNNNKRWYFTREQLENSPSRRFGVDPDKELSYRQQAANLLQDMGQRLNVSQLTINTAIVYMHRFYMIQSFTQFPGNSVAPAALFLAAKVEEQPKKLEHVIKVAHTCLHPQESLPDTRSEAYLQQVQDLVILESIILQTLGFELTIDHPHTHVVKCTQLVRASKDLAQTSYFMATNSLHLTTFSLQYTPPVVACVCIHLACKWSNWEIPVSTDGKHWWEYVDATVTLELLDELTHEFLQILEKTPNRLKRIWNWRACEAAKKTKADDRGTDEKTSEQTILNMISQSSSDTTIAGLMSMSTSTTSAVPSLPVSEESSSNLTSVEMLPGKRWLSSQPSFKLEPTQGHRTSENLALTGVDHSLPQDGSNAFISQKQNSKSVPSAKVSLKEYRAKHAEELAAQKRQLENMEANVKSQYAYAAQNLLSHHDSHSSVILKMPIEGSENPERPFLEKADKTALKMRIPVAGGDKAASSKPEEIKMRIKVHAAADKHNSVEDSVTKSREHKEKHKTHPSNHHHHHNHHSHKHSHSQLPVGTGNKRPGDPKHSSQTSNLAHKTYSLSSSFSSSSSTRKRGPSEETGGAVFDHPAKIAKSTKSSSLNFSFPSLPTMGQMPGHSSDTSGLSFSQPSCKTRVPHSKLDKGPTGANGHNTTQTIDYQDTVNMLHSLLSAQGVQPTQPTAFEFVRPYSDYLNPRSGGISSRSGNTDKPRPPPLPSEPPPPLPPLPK
Chain of CDK9/cyclin T1 (P50750 whole entry): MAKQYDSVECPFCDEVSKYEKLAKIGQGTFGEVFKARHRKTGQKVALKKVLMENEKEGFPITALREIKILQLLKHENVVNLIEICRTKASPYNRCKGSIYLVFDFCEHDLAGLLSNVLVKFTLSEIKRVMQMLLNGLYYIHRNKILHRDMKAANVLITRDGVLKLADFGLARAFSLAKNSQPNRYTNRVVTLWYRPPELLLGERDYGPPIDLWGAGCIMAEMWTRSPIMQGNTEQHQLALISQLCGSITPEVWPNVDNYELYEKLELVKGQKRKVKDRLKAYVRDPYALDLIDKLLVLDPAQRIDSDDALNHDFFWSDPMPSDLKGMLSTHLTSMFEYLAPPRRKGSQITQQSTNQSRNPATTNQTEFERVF

[9] = target: Cyclin-dependent kinase 1/cyclin B1 (Homo sapiens, UniProt P06493); assay: Inhibition of CDK1/cyclinB (unknown origin); type: protein-complex assay
Chain of Cyclin-dependent kinase 1/cyclin B1 (P06493 whole entry): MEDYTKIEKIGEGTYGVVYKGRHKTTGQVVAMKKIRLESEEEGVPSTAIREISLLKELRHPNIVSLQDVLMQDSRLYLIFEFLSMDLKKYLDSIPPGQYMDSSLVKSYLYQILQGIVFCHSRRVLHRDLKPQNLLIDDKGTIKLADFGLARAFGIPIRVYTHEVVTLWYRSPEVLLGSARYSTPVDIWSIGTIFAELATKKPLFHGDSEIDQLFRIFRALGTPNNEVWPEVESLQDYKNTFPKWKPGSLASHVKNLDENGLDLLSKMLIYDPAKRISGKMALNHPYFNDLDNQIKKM
Chain of Cyclin-dependent kinase 1/cyclin B1 (P14635 whole entry, further chain): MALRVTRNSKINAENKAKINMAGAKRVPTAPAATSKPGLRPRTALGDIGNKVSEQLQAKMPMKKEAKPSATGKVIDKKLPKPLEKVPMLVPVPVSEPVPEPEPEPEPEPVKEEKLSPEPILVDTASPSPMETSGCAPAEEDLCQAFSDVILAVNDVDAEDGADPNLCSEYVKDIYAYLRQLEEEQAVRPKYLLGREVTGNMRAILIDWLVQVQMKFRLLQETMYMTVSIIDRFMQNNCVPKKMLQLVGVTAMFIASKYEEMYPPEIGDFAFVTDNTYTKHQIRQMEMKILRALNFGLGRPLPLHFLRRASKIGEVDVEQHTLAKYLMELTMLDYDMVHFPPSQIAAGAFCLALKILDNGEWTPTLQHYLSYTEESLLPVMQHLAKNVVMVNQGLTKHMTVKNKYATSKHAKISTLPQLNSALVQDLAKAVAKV

[10] = target: T1, Cyclin-dependent kinase 5/CDK5 activator 1; assay: Inhibition of CDK5/p25 (unknown origin); type: protein-complex assay
[11] = target: CDK2/Cyclin A2 (Homo sapiens, UniProt P24941); assay: Inhibition of CDK2/cyclinA (unknown origin); type: protein-complex assay

## Nc1nc(N[C@H]2C[C@@H]3CC[C@H]2C3)sc1C(=O)c1ccccc1[N+](=O)[O-]
[1]
  IC50: 367 nM
[2]
  Ratio IC50: 22.5
[3]
  IC50: 112 nM
[4]
  IC50: 159 nM
[5]
  IC50: 712 nM
[6]
  IC50: 555 nM
[7]
  IC50: 399 nM
[8]
  IC50: 5 nM
[9]
  IC50: 138 nM
[10]
  IC50: 186 nM
[11]
  IC50: 233 nM

Reference: ChEMBL document CHEMBL4725424, “The Resurrection of Phenotypic Drug Discovery” (ACS Med Chem Lett, 2020)
